In patent US6399618B1, “Compositions and methods for modulating sexual activity” (priority 1997, dated 2002):
Structures can show the parent of a compound that is named as a salt. Marks after values point to notes of the source that are not given here.

Assays:
[1] = test system: noradrenaline pre-contracted rabbit CC; experiment: Direct action on penile erection: tone of corpus cavernosal muscle strips in organ bath; settings: concentration from 10^-8 M to 10^-4 M; n=6
Method: Corpus cavernosal (CC) muscle strips were prepared from penises obtained from rabbit (n=6). CC strips were dissected free from tunica albungia and mounted in 10 or 25 mL organ baths containing Tyrode solution saturated with 95%O2/5% CO2 mixture.

male rats [2] = experiment: Antagonism of XVIb-induced erections by comparative compounds in rats; type: in vivo, SD rats; settings: for antagonism of the erectile promoting actions of XVIb: injected 30 minutes prior to XVIb 16 mg/kg ip, pindolol 0.1-3, scopolamine 0.1-3.0, haloperidol 0.01-0.3, ketanserin 0.1-3.0 mg/kg
Method: Male SD rats (300-500 g; n=6 per group) were injected with (±)-Pindolol, scopolamine, haloperidol, or ketanserin, 30 minutes prior to injection of a single dose of XVIb (16 mg/kg, ip) or saline.

male rats [3] = experiment: Rat sexual behavior, proerectile actions of XVIIa and XVIIb (ip); type: in vivo, SD rats; settings: 16 mg/kg ip
Method: Male SD rats (250-300 g) were injected with XVIIa (16 mg/kg, ip), XVIIb (16 mg/kg, ip) or distilled water (ip), and observed 5 minutes later for the number of erections (as characterized by penile grooming) and the time to the first erection, over a 60 minute observation period. Six rats at a time, housed singly, were observed by two observers. Treatments were administered in a standard randomized and double blinded manner.

male primates = experiment: Sexual behavior in male primates, paired observation study (penile response grades); type: in vivo, macaca fascilaris; settings: 1.0 mg/kg ip; N=3; observed 1 hour
Method: Monkeys used for testing were separated from the cluster of cages and treated and observed in pairs in the middle of the housing environment.
N=3 for all drug-treated animals, while N=18 for saline-treated animals. […] Data are expressed as the number of test animals having a particular grade of penile response. Penile responses were scored every 10 sec for 1 hour according to the following scale:
Grade 0=glans are hidden from the view
Grade 1=glans are clearly visible
Grade 2=penis is extended
Grade 4=erection with masturbation
Grade 5=erection with masturbation and ejaculation

male rats [4] = experiment: Rat sexual behavior, proerectile actions (injected); type: in vivo, SD rats; settings: for Erections/60 minutes / Latency to the first erection: mean±sem; for Erections/60 minutes / Latency to the first erection / Responders: n=10
Method: Male SD rats (350-450 g; n=10 per group) were injected with increasing doses of XVIb (4.0-64.0 mg/kg), XVIa (1.0, 4.0 or 16 mg/kg) or saline and observed 5 minutes later, in groups of 5, for the number of erections and the time to the first erection, over a 60 minutes observation period.
In Table 2, the effects of XVIb, XVIa and saline on erection in male rats is indicated. Data is expressed as the mean±sem for 10 test animals. Data marked with an asterisk “*” indicate significant difference from saline (α<0.05) as determined by ANOVA with Tukey test for multiple comparisons.

Row | Molecule | number of test animals having Grade 0 penile response (glans are hidden from the view) (male primates) | number of test animals having Grade 1 penile response (glans are clearly visible) (male primates) | number of test animals having Grade 2 penile response (penis is extended) (male primates) | number of test animals having Grade 3 penile response (full erection) (male primates) | number of test animals having Grade 4 penile response (erection with masturbation) (male primates) | number of test animals having Grade 5 penile response (erection with masturbation and ejaculation) (male primates) | also measured
1 | 1-methyl-4-trifluoromethylphenylpiperazine | – | – | – | – | – | – | effect on tone of noradrenaline pre-contracted rabbit CC [1]: failed to reduce tone
2 | CC(C)NCC(O)COc1cccc2[nH]ccc12 (racemic) [(±)-Pindolol] | – | – | – | – | – | – | erections after (±)-pindolol pretreatment plus XVIb (male rats [2]; highest dose tested of (±)-pindolol, XVIb 16 mg/kg ip, n=6): 2.0±0.4 erections/60 minutes; antagonism of the erectile promoting actions of XVIb (male rats [2]): antagonized the erectile promoting actions
3 | O=c1n(CCCN2CCN(c3cccc(Cl)c3)CC2)nc2ccccn12 [Trazodone] | – | – | – | – | – | – | effect on tone of noradrenaline pre-contracted rabbit CC [1]: reduced tone of rabbit CC in a dose dependent manner
4 | CN1CCN(C(=O)Cc2ccc(Cl)c(Cl)c2)CC1 [XVIIa, 1-Methyl-4-(2-(3,4-Dichlorophenyl)acetyl)piperazine Monohydrochloride] | – | – | – | – | – | – | Responders (male rats [3]): 67%; latency to first erection (male rats [3]): 6 min; maximum number of erections/rat (male rats [3]): 3 h⁻¹
5 | COc1ccc(CC(=O)N2CCN(C)CC2)cc1OC [XVIIb, 1-Methyl-4-(3,4-Dimethoxyacetyl)Piperazine Monohydrochloride] | – | – | – | – | – | – | Responders (male rats [3]): 100%; latency to first erection (male rats [3]): 16 min; maximum number of erections/rat (male rats [3]): 5 h⁻¹
6 | CN1CCN(C(=O)Cc2cccc3ccccc23)CC1 [XVIa, 1-Methyl-4(1-naphthaleneacetyl)piperazine monohydrochloride] | 1 | 2 | 2 | 1 | 1 | 0 | Erections/60 minutes (male rats [4]; 1.0 mg/kg): 1.2 ± 0.3; Latency to the first erection (male rats [4]; 1.0 mg/kg): 1929 ± 432 s; Responders (male rats [4]; 1.0 mg/kg): 100%; Erections/60 minutes (male rats [4]; 4.0 mg/kg): 3.0 ± 0.6; Latency to the first erection (male rats [4]; 4.0 mg/kg): 1749 ± 349 s; Responders (male rats [4]; 4.0 mg/kg): 100%; Erections/60 minutes (male rats [4]; 16.0 mg/kg): 5.4 ± 0.7* #; Latency to the first erection (male rats [4]; 16.0 mg/kg): 506 ± 105* sec; Responders (male rats [4]; 16.0 mg/kg): 100%; effect on penile erections (in words) (male rats [4]; 60 minutes observation): increased penile erections, although to a lesser degree than XVIb
7 | CN1[C@@H]2C[C@@H](OC(=O)[C@H](CO)c3ccccc3)C[C@H]1[C@@H]1O[C@@H]12 [scopolamine] | – | – | – | – | – | – | antagonism of the erectile promoting actions of XVIb (male rats [2]): antagonized the erectile promoting actions; erections after scopolamine pretreatment plus XVIb (male rats [2]; scopolamine, XVIb 16 mg/kg ip, n=6): 1.2±0.3 erections/60 minutes
8 | (±)-trans-N-[2-(1-(4-methyl)piperazinyl)cyclohexyl]naphthalene-2-acetamide monohydrochloride [XVb] | 1 | 2 | 2 | 1 | 0 | 0 | –
9 | (±)-trans-N-methyl-[2-(1-(4-methyl)piperazinyl)cyclohexyl]naphthalene-1-acetamide monohydrochloride [Compound XVa] | 1 | 2 | 2 | 2 | 2 | 0 | –
10 | (±)-trans-[2-(1-(4-methyl)piperazinyl)cyclohexyl]naphthalene-1-acetate monohydrochloride [XVc] | 1 | 2 | 2 | 2 | 2 | 1 | –
